Results: patent publication US10294202B2, “Pyrrolidinones as herbicides” (FMC Corporation, priority 2013, dated 2019)

Legend:
giant foxtail = assay: Test A pre-/postemergence herbicide test; assay type: in vivo, Setaria faberii
Outline: (§1)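 Both application timings used compounds in a non-phytotoxic solvent plus surfactant. Pre-emergence: soil sprayed directly after seeding into loam/sand. Post-emergence: foliage of 2–10 cm seedlings (1–2 leaves) sprayed. Injury rated ~10 days later, 0–100.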

wheat = assay: Test A pre-/postemergence herbicide test; assay type: in vivo, Triticum aestivum; conditions: Postemergence
Outline: as §1

wheat (winter wheat) = assay: Test C pre-/postemergence herbicide test; assay type: in vivo, Triticum aestivum
Outline: (§2)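 Herbicidal effect was judged by eye 13 to 15 days after treatment in the greenhouse, using a 0–100 scale against controls. Chemicals in a non-phytotoxic solvent with surfactant were sprayed onto planted loam/sand soil or onto plants 2 to 18 cm tall in a peat-based growing medium.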

galium = assay: Test C pre-/postemergence herbicide test; assay type: in vivo, Galium aparine; conditions: Preemergence
Outline: as §2

foxtail, giant = assay: Test C pre-/postemergence herbicide test; assay type: in vivo, Setaria faberii
Outline: as §2

johnsongrass = assay: Test C pre-/postemergence herbicide test; assay type: in vivo, Sorghum halepense
Outline: as §2

lambsquarters = assay: Test C pre-/postemergence herbicide test; assay type: in vivo, Chenopodium album
Outline: as §2

morningglory = assay: Test C pre-/postemergence herbicide test; assay type: in vivo, Ipomoea coccinea
Outline: as §2

pigweed = assay: Test C pre-/postemergence herbicide test; assay type: in vivo, Amaranthus retroflexus
Outline: as §2

barnyardgrass = assay: Test C pre-/postemergence herbicide test; assay type: in vivo, Echinochloa crus-galli
Outline: as §2

[1] = Postemergence, 31 g ai/ha, scale 0 to 100 (0 no effect, 100 complete control)
[2] = Postemergence, 62 g ai/ha, scale 0 (no effect) to 100 (complete control)
[3] = Postemergence, 125 g ai/ha, scale 0 to 100 (0 no effect, 100 complete control)
[4] = Postemergence, 250 g ai/ha, scale 0 to 100 (0 no effect, 100 complete control)
[5] = Preemergence, 62 g ai/ha, scale 0 to 100 (0 no effect, 100 complete control)
[6] = Preemergence, 125 g ai/ha, scale 0 to 100
[7] = Preemergence, 31 g ai/ha, scale 0 to 100, 0 is no effect and 100 is complete control

O=C1NCC(c2cccc(C(F)(F)F)c2)C1C(=O)Nc1ccc(F)c(F)c1F (centres unmarked) [Compound 315]
Plant response rating, Foxtail, Giant (giant foxtail; Postemergence, 125 g ai/ha, visual rating on 0 to 100 scale (0 no effect, 100 complete control), approx. 10 days): 90 | Plant response rating, Foxtail, Giant (giant foxtail; Postemergence, 500 g ai/ha, 0 to 100 scale (0 no effect, 100 complete control)): 90 | Plant response rating, Foxtail, Giant (giant foxtail; Preemergence, 125 g ai/ha, 0 to 100 scale where 0 is no effect and 100 is complete control): 90 | Foxtail, Giant plant response rating (giant foxtail; Preemergence, 500 g ai/ha, visual rating on 0 to 100 scale (0 no effect, 100 complete control)): 90 | Plant response rating, Wheat (wheat; 125 g ai/ha, visual rating on 0 to 100 scale (0 no effect, 100 complete control), approx. 10 days): 60 | Plant response rating, Wheat (wheat; 500 g ai/ha, 0 to 100 scale (0 no effect, 100 complete control)): 70 | Plant response rating, Wheat (wheat (winter wheat); [1]): 0 | Plant response rating, Wheat (wheat (winter wheat); [2]): 0 | Plant response rating, Wheat (wheat (winter wheat); [3]): 0 | Plant response rating, Wheat (wheat (winter wheat); [4]): 5 | Wheat plant response rating (wheat (winter wheat); [5]): 50 | Plant response rating, Wheat (wheat (winter wheat); [6]): 90 | Plant response rating (scale of 0 to 100), Wheat (wheat (winter wheat); Preemergence, 250 g ai/ha): 90 | Galium plant response rating (galium; 31 g ai/ha, scale 0 to 100, 0 is no effect and 100 is complete control): 90 | Galium plant response rating (galium; 62 g ai/ha, scale 0 to 100 (0 no effect, 100 complete control)): 80 | Plant response rating, Galium (galium; 125 g ai/ha, scale 0 to 100): 80 | Plant response rating (scale of 0 to 100), Galium (galium; 250 g ai/ha): 90 | Plant response rating, Foxtail, Giant (foxtail, giant; [1]): 0 | Plant response rating, Foxtail, Giant (foxtail, giant; [2]): 40 | Plant response rating, Foxtail, Giant (foxtail, giant; [3]): 85 | Plant response rating, Foxtail, Giant (foxtail, giant; [4]): 85 | Foxtail, Giant plant response rating (foxtail, giant; [7]): 90 | Foxtail, Giant plant response rating (foxtail, giant; [5]): 90 | Plant response rating, Foxtail, Giant (foxtail, giant; [6]): 95 | Plant response rating (scale of 0 to 100), Foxtail, Giant (foxtail, giant; Preemergence, 250 g ai/ha): 98 | Plant response rating, Johnsongrass (johnsongrass; [1]): 0 | Plant response rating, Johnsongrass (johnsongrass; [2]): 0 | Plant response rating, Johnsongrass (johnsongrass; [3]): 0 | Plant response rating, Johnsongrass (johnsongrass; [4]): 35 | Johnsongrass plant response rating (johnsongrass; [7]): 75 | Johnsongrass plant response rating (johnsongrass; [5]): 85 | Plant response rating, Johnsongrass (johnsongrass; [6]): 85 | Plant response rating (scale of 0 to 100), Johnsongrass (johnsongrass; Preemergence, 250 g ai/ha): 90 | Plant response rating, Lambsquarters (lambsquarters; [1]): 60 | Plant response rating, Lambsquarters (lambsquarters; [2]): 60 | Plant response rating, Lambsquarters (lambsquarters; [3]): 65 | Plant response rating, Lambsquarters (lambsquarters; [4]): 80 | Lambsquarters plant response rating (lambsquarters; [7]): 40 | Lambsquarters plant response rating (lambsquarters; [5]): 40 | Plant response rating, Lambsquarters (lambsquarters; [6]): 70 | Plant response rating (scale of 0 to 100), Lambsquarters (lambsquarters; Preemergence, 250 g ai/ha): 80 | Plant response rating, Morningglory (morningglory; [1]): 25 | Plant response rating, Morningglory (morningglory; [2]): 65 | Plant response rating, Morningglory (morningglory; [3]): 35 | Plant response rating, Morningglory (morningglory; [4]): 10 | Morningglory plant response rating (morningglory; [7]): 20 | Morningglory plant response rating (morningglory; [5]): 25 | Plant response rating, Morningglory (morningglory; [6]): 35 | Plant response rating (scale of 0 to 100), Morningglory (morningglory; Preemergence, 250 g ai/ha): 45 | Plant response rating, Pigweed (pigweed; [1]): 25 | Plant response rating, Pigweed (pigweed; [2]): 65 | Plant response rating, Pigweed (pigweed; [3]): 65 | Plant response rating, Pigweed (pigweed; [4]): 80 | Pigweed plant response rating (pigweed; [7]): 45 | Pigweed plant response rating (pigweed; [5]): 60 | Plant response rating, Pigweed (pigweed; [6]): 75 | Plant response rating (scale of 0 to 100), Pigweed (pigweed; Preemergence, 250 g ai/ha): 85 | Plant response rating, Barnyardgrass (barnyardgrass; [1]): 25 | Plant response rating, Barnyardgrass (barnyardgrass; [2]): 65 | Plant response rating, Barnyardgrass (barnyardgrass; [3]): 70 | Plant response rating, Barnyardgrass (barnyardgrass; [4]): 85 | Barnyardgrass plant response rating (barnyardgrass; [7]): 90 | Barnyardgrass plant response rating (barnyardgrass; [5]): 90 | Plant response rating, Barnyardgrass (barnyardgrass; Preemergence, 125 g ai/ha, scale 0 to 100 (0 no effect, 100 complete control)): 90 | Plant response rating (scale of 0 to 100; 0 is no effect, 100 is complete control), Barnyardgrass (barnyardgrass; Preemergence, 250 g ai/ha): 95
